Reference: patent US5670546A, “N-Arylalkylphenylacetamide derivatives” (Korean Research Institute of Chemical Technology, priority 1995, dated 1997)

Columns and labels:
KTC-ICR mice [1] = experiment: phenyl-1,4-benzoquinone (PBQ) induced writhing test (analgesic effect); format: in vivo; settings: Mus musculus, ip, read-out: ED50 PBQ
Method: (§1) Physiological activities of the compounds obtained in Examples 1 to 11 were measured by employing acetic acid or phenyl-1,4-benzoquinone(PBQ) induced writhing test.
(§2) The KTC-ICR mice provided by Experimental Animal Laboratory of Korea Research Institute of Chemical Technology were used as test animals. […] They were tested in a group consisting of 8 mice for each dosage of a test compound after having been adjusted to the testing environment for a week. Food and water were given freely; and illumination was maintained on a 12-hour cycle.
(§3) Test solutions were prepared by dissolving one of the final products obtained in Examples 1 to 11 in distilled water containing 1% of Tween and 5% ethanol in a pre-determined concentration. The test solutions were used after serial dilution depending on each dosage.
(§4) The test solutions were intraperitoneally administered in a dose of 0.1 ml per 10 g of a body weight. 0.1 ml of 1% acetic acid solution or 0.1 ml of 0.02% PBQ solution was administered after 60 minutes in case of oral administration or after 30 minutes in case of subcutaneous injection.
(§5) Then, the number of writhings generated during a period of 10 minutes after 3 minutes from the administration of acetic acid was measured. In case of the administration of PBQ, the number of writhings generated during a period of 5 minutes after 5 minutes from the administration was measured.
(§6) For a comparison purpose, initially, distilled water containing 1% of Tween and 5% ethanol alone was administered to the control group. Then, the control groups were subjected the same procedure as the test groups.
(§7) The number of writhings suffered by the test group was compared with that of the control group; and the analgesic effect was measured in terms of the percentage of inhibition of writhing(I. W.). [formula] wherein: A is the number of writhings suffered by the control group; and
(§8) B is the number of writhings suffered by the test group.
(§9) I.W. values for each dosage were calculated by employing regression analysis. The amount of a test compound which is required in reducing the frequency of writhings to the 50% level of that generated by the control group, i.e., B=0.5A or I.W.=50%, is designated as ED50 (mg/kg of a body weight). Therefore, a lower value of ED50 represents a higher analgesic effect of the tested compound.

KTC-ICR mice [2] = experiment: acetic acid induced writhing test (analgesic effect); format: in vivo; settings: for ED50: Mus musculus, ip, read-out: ED50 acetic acid
Method: as §1, §2, §3, §4, §5, §6, §7, §8, §9

test animals = experiment: toxicity test: behavioral changes in the test animals observed by the naked eye; format: in vivo, KTC-ICR mice; design: key to Convulsion / Salivation / Urination: score; normal value 0, higher number = greater side effects; settings: score; for Convulsion / Salivation / Urination: normal value 0; for Dyspnoea / Ptosis / Sedation / Vasodilation: normal value 4
Method: In order to monitor a harmful side-effect or toxicity of the present compounds, various behavioral changes in the test animals were observed. After the test and the control solutions were administered to the animals, symptoms such as sedation, ptosis, dyspnoea, vasodilation, convulsion, salivation and urination were observed by the naked eye and the level of such changes was represented by a numbering system: that is, the normal value of the last three behaviors(i.e., urination, convulsion and salivation) is 0; and that of the others(i.e., sedation, ptosis, dyspnoea and vasodilation) is 4. The higher the number is, the greater the side effects are.

[3] = acetic acid induced writhing, 50% reduction of writhings vs control group, mice 20 to 25 g
[4] = PBQ induced writhing, 50% reduction of writhings vs control group, mice 14 to 18 g

CC(=O)Oc1ccccc1C(=O)O [Aspirin]
ED50 (KTC-ICR mice [1]): 71.4 mg/kg

COc1cc(CNC(=O)CCCC/C=C/C(C)C)ccc1O [Capsaicin, Nvanillyl-trans-8-methyl-6-nonenamide, reference compound]
ED50 (KTC-ICR mice [2]): 1.34 mg/kg

COc1cc(CC(=O)NCCCc2ccc(C)c(C)c2)ccc1OCCN [Control, reference compound]
Convulsion (test animals; Amount 0.2 mgg): 1 | Salivation (test animals; Amount 0.2 mgg): 0 | Urination (test animals; Amount 0.2 mgg): 0 | Dyspnoea (test animals; Amount 0.2 mgg): 4 | Ptosis (test animals; Amount 0.2 mgg): 4 | Sedation (test animals; Amount 0.2 mgg): 4 | Vasodilation (test animals; Amount 0.2 mgg): 4 | Convulsion (test animals; Amount 0.25 mgg): 1 | Salivation (test animals; Amount 0.25 mgg): 0 | Urination (test animals; Amount 0.25 mgg): 0 | Dyspnoea (test animals; Amount 0.25 mgg): 5 | Ptosis (test animals; Amount 0.25 mgg): 6 | Sedation (test animals; Amount 0.25 mgg): 6 | Vasodilation (test animals; Amount 0.25 mgg): 5 | Convulsion (test animals; Amount 0.5 mgg): 1 | Salivation (test animals; Amount 0.5 mgg): 0 | Urination (test animals; Amount 0.5 mgg): 0 | Dyspnoea (test animals; Amount 0.5 mgg): 6 | Ptosis (test animals; Amount 0.5 mgg): 7 | Sedation (test animals; Amount 0.5 mgg): 7 | Vasodilation (test animals; Amount 0.5 mgg): 5 | Convulsion (test animals; Amount 1 mgg): 1 | Salivation (test animals; Amount 1 mgg): 0 | Urination (test animals; Amount 1 mgg): 0 | Dyspnoea (test animals; Amount 1 mgg): 6 | Ptosis (test animals; Amount 1 mgg): 7 | Sedation (test animals; Amount 1 mgg): 7 | Vasodilation (test animals; Amount 1 mgg): 6

COc1cc(CC(=O)NCCCc2ccc(C)c(C)c2)ccc1OCCO [Example 1, N-{3-(3,4-dimethylphenyl)propyl}-4-(2-hydroxyethoxy)-3-methoxyphenylacetamide]
Convulsion (test animals; Amount 1 mgg): 0 | Salivation (test animals; Amount 1 mgg): 0 | Urination (test animals; Amount 1 mgg): 0 | Dyspnoea (test animals; Amount 1 mgg): 4 | Ptosis (test animals; Amount 1 mgg): 4 | Sedation (test animals; Amount 1 mgg): 4 | Vasodilation (test animals; Amount 1 mgg): 4 | Convulsion (test animals; Amount 2 mgg): 0 | Salivation (test animals; Amount 2 mgg): 0 | Urination (test animals; Amount 2 mgg): 0 | Dyspnoea (test animals; Amount 2 mgg): 4 | Ptosis (test animals; Amount 2 mgg): 4 | Sedation (test animals; Amount 2 mgg): 4 | Vasodilation (test animals; Amount 2 mgg): 4 | Convulsion (test animals; Amount 4 mgg): 0 | Salivation (test animals; Amount 4 mgg): 0 | Urination (test animals; Amount 4 mgg): 0 | Dyspnoea (test animals; Amount 4 mgg): 5 | Ptosis (test animals; Amount 4 mgg): 5 | Sedation (test animals; Amount 4 mgg): 6 | Vasodilation (test animals; Amount 4 mgg): 5 | ED50 (KTC-ICR mice [2]; [3]): 2.01 mg/kg

COc1cc(CC(=O)NCCCc2ccc(C)c(C)c2)ccc1OCCNCCO [Example 2, N-{3-(3,4-dimethylphenyl)propyl}-4-[2-{N-(2-hydroxyethyl)}aminoethoxy]-3-methoxy phenylacetamide]
Convulsion (test animals; Amount 0.25 mgg): 0 | Salivation (test animals; Amount 0.25 mgg): 0 | Urination (test animals; Amount 0.25 mgg): 0 | Dyspnoea (test animals; Amount 0.25 mgg): 4 | Ptosis (test animals; Amount 0.25 mgg): 4 | Sedation (test animals; Amount 0.25 mgg): 4 | Vasodilation (test animals; Amount 0.25 mgg): 4 | Convulsion (test animals; Amount 0.5 mgg): 0 | Salivation (test animals; Amount 0.5 mgg): 0 | Urination (test animals; Amount 0.5 mgg): 0 | Dyspnoea (test animals; Amount 0.5 mgg): 4 | Ptosis (test animals; Amount 0.5 mgg): 5 | Sedation (test animals; Amount 0.5 mgg): 5 | Vasodilation (test animals; Amount 0.5 mgg): 4 | Convulsion (test animals; Amount 1 mgg): 0 | Salivation (test animals; Amount 1 mgg): 0 | Urination (test animals; Amount 1 mgg): 0 | Dyspnoea (test animals; Amount 1 mgg): 5 | Ptosis (test animals; Amount 1 mgg): 6 | Sedation (test animals; Amount 1 mgg): 6 | Vasodilation (test animals; Amount 1 mgg): 5 | ED50 (KTC-ICR mice [1]; [4]): 0.83 mg/kg | ED50 (KTC-ICR mice [2]; [3]): 0.3 mg/kg

COc1cc(CC(=O)NCCCc2ccc(C)c(C)c2)ccc1OCCN(CCO)CCO [Example 3, N-{3-(3,4-dimethylphenyl)propyl}-4-[2-{N,N-di(2-hydroxyethyl)}aminoethoxy]-3-methoxyphenylacetamide]
Convulsion (test animals; Amount 1.25 mgg): 0 | Salivation (test animals; Amount 1.25 mgg): 0 | Urination (test animals; Amount 1.25 mgg): 0 | Dyspnoea (test animals; Amount 1.25 mgg): 4 | Ptosis (test animals; Amount 1.25 mgg): 4 | Sedation (test animals; Amount 1.25 mgg): 4 | Vasodilation (test animals; Amount 1.25 mgg): 4 | Convulsion (test animals; Amount 2.5 mgg): 0 | Salivation (test animals; Amount 2.5 mgg): 0 | Urination (test animals; Amount 2.5 mgg): 0 | Dyspnoea (test animals; Amount 2.5 mgg): 4 | Ptosis (test animals; Amount 2.5 mgg): 5 | Sedation (test animals; Amount 2.5 mgg): 5 | Vasodilation (test animals; Amount 2.5 mgg): 4 | Convulsion (test animals; Amount 5 mgg): 0 | Salivation (test animals; Amount 5 mgg): 0 | Urination (test animals; Amount 5 mgg): 0 | Dyspnoea (test animals; Amount 5 mgg): 6 | Ptosis (test animals; Amount 5 mgg): 7 | Sedation (test animals; Amount 5 mgg): 6 | Vasodilation (test animals; Amount 5 mgg): 5 | ED50 (KTC-ICR mice [2]; [3]): 1.41 mg/kg

COc1cc(CC(=O)NCCCc2ccc(C)c(C)c2)ccc1OCCNCCN [Example 4, N-{3-(3,4-dimethylphenyl)propyl}-4-[2-{N-(2-aminoethyl)}aminoethoxy]-3-methoxyphenylacetamide]
ED50 (KTC-ICR mice [2]; [3]): 1.78 mg/kg

COc1cc(CC(=O)NCCCc2ccc(C)c(C)c2)ccc1OCCN1CCNCC1 [Example 5, N-{3-(3,4-dimethylphenyl)propyl}-4-(2-piperazinylethoxy)-3-methoxyphenylacetamide]
Convulsion (test animals; Amount 1 mgg): 0 | Salivation (test animals; Amount 1 mgg): 0 | Urination (test animals; Amount 1 mgg): 0 | Dyspnoea (test animals; Amount 1 mgg): 4 | Ptosis (test animals; Amount 1 mgg): 4 | Sedation (test animals; Amount 1 mgg): 4 | Vasodilation (test animals; Amount 1 mgg): 4 | Convulsion (test animals; Amount 2 mgg): 0 | Salivation (test animals; Amount 2 mgg): 0 | Urination (test animals; Amount 2 mgg): 0 | Dyspnoea (test animals; Amount 2 mgg): 4 | Ptosis (test animals; Amount 2 mgg): 4 | Sedation (test animals; Amount 2 mgg): 4 | Vasodilation (test animals; Amount 2 mgg): 4 | Convulsion (test animals; Amount 4 mgg): 0 | Salivation (test animals; Amount 4 mgg): 0 | Urination (test animals; Amount 4 mgg): 0 | Dyspnoea (test animals; Amount 4 mgg): 4 | Ptosis (test animals; Amount 4 mgg): 6 | Sedation (test animals; Amount 4 mgg): 6 | Vasodilation (test animals; Amount 4 mgg): 4 | ED50 (KTC-ICR mice [2]; [3]): > 20 mg/kg

COc1cc(CC(=O)NCCCc2ccc(C)c(C)c2)ccc1OCCNC=O [Example 6]
ED50 (KTC-ICR mice [2]; [3]): 0.26 mg/kg

COc1cc(CC(=O)NCCCc2ccc(C)c(C)c2)ccc1OCCNC(=O)OCc1ccccc1 [Example 7, N-{3-(3,4-dimethylphenyl)propyl}-4-{2-(N-benzyloxycarbonyl)aminoethoxy}-3-methoxyphenylacetamide]
ED50 (KTC-ICR mice [2]; [3]): 1.51 mg/kg

CNCCOc1ccc(CC(=O)NCCCc2ccc(C)c(C)c2)cc1OC [Example 8, N-{3-(3,4-dimethylphenyl)propyl}-4-(2-methylaminoethoxy)-3-methoxyphenylacetamide]
ED50 (KTC-ICR mice [1]; [4]): 0.68 mg/kg

COc1cc(CC(=O)NCCCc2ccc(C)c(C)c2)ccc1OCCN1CCCC1 [Example 9, N-{3-(3,4-dimethylphenyl)propyl}-4-{2-(1-pyrrolidinyl)ethoxy}-3-methoxyphenylacetamide]
ED50 (KTC-ICR mice [2]; [3]): > 5 mg/kg

CCOC(=O)NCCOc1ccc(CC(=O)NCCCc2ccc(C)c(C)c2)cc1OC [Example 10, N-{3-(3,4-dimethylphenyl)propyl}-4-{2-(N-ethyloxycarbonyl)aminoethoxy}-3-methoxyphenylacetamide]
ED50 acetic acid (KTC-ICR mice [2]; [3]): > 10 mg/kg of a body weight

COc1cc(CC(=O)NCCCc2ccc(C)c(C)c2)ccc1OCCNC(=O)c1ccccc1OC(C)=O [Example 11, N-{3-(3,4-dimethylphenyl)propyl}-4-[2-{N-(2-acetoxybenzoyl)}aminoethoxy]-3-methoxyphenylacetamide]
ED50 (KTC-ICR mice [2]; [3]): 4.15 mg/kg

CC(C)Cc1ccc(C(C)C(=O)O)cc1 (stereo not drawn) [Ibuprofen]
ED50 (KTC-ICR mice [1]; [4]): 11 mg/kg

CCCCCCCC/C=C\CCCCCCCC(=O)NCc1ccc(O)c(OC)c1 [NE-19550, Nvanillyloleamide, reference compound]
ED50 (KTC-ICR mice [2]): 15.7 mg/kg

CCCCCCCC/C=C\CCCCCCCC(=O)NCc1ccc(OCCN)c(OC)c1 [NE-21610, N{4(2-aminoethoxy)-3-methoxybenzyl)-oleamide, reference compound]
ED50 (KTC-ICR mice [1]; [4]): 38.3 mg/kg | ED50 (KTC-ICR mice [2]; [3]): > 300 mg/kg

COc1ccc2cc([C@H](C)C(=O)O)ccc2c1 [Naproxen]
ED50 (KTC-ICR mice [1]; [4]): 17.1 mg/kg

CCCCC1C(=O)N(c2ccccc2)N(c2ccccc2)C1=O [Phenylbutazone]
ED50 (KTC-ICR mice [1]; [4]): 79.8 mg/kg
